Experiments:
HBV = test: anti HBV activity, HepG2.117 cell line, intracellular HBV DNA by realtime PCR; assay type: cell-based; details: Hepatitis B virus, HepG2.117, 72 h, HepG2.117 cell line (Tet-off), 3 days of treatment, intracellular HBV DNA quantified by realtime PCR; read-out: HBV-AVE-HepG2.117 EC50
Description: The anti HBV activity was measured using the HepG2.117 cell line, a stable, inducibly HBV producing cell line, which replicates HBV in the absence of doxicycline (Tet-off system). For the antiviral assay, HBV replication was induced, followed by a treatment with serially diluted compound in 96-well plates in duplicate. After 3 days of treatment, the antiviral activity was determined by quantification of intracellular HBV DNA using realtime PCR and an HBV specific primer set and probe.

[1] = Cytotoxicity in HepG2 cells, Resazurin assay; details: human, HepG2 cells, TOX-HepG2-4 d CC50 (μM), HepG2 cells incubated for 4 days, viability by Resazurin assay

Structure (SMILES) | EC50 (HBV) | CC50 at 4 days [1]
Cn1cc2c(c1C(=O)Nc1ccnc(C(F)(F)F)c1)CCC(C(F)(F)F)NS2(=O)=O (racemic) [Compound 59, 7-methyl-1,1-dioxo-3-(trifluoromethyl)-N-[2-(trifluoromethyl)-4-pyridyl]-2,3,4,5-tetrahydropyrrolo[3,4-f]thiazepine-6-carboxamide] | 240 nM | > 25 µM
Cn1cc2c(c1C(=O)Nc1ccc(F)c(C#N)c1)CCC(C(F)(F)F)NS2(=O)=O (racemic) [Compound 60, N-(3-cyano-4-fluoro-phenyl)-7-methyl-1,1-dioxo-3-(trifluoromethyl)-2,3,4,5-tetrahydropyrrolo[3,4-f]thiazepine-6-carboxamide] | 13 nM | > 25 µM
Cn1cc2c(c1C(=O)Nc1ccc(F)c(F)c1)OCC(C)(c1cnccn1)NS2(=O)=O (racemic) [Compound 145, N-(3,4-difluorophenyl)-3,7-dimethyl-1,1-dioxo-3-pyrazin-2-yl-2,4-dihydropyrrolo[3,4-b][1,4,5]oxathiazepine-6-carboxamide] | 37 nM | > 25 µM
Cn1cc2c(c1C(=O)Nc1ccc(F)c(F)c1)OCC(C)(c1ncccn1)NS2(=O)=O (racemic) [Compound 153, N-(3,4-difluorophenyl)-3,7-dimethyl-1,1-dioxo-3-pyrimidin-2-yl-2,4-dihydropyrrolo[3,4-b][1,4,5]oxathiazepine-6-carboxamide] | 68 nM | > 25 µM
Cn1cc2c(c1C(=O)Nc1ccc(F)c(F)c1)OCC(C)(c1ncco1)NS2(=O)=O (racemic) [Compound 160, N-(3,4-difluorophenyl)-3,7-dimethyl-3-oxazol-2-yl-1,1-dioxo-2,4-dihydropyrrolo[3,4-b][1,4,5]oxathiazepine-6-carboxamide] | 14.5 nM | > 25 µM
Cc1cc(CC2(C)COc3c(cn(C)c3C(=O)Nc3ccc(F)c(F)c3)S(=O)(=O)N2)no1 (racemic) [Compound 162, N-(3,4-difluorophenyl)-3,7-dimethyl-3-[(5-methylisoxazol-3-yl)methyl]-1,1-dioxo-2,4-dihydropyrrolo[3,4-b][1,4,5]oxathiazepine-6-carboxamide] | 3 nM | > 25 µM
Cn1ccc(CC2(C)COc3c(cn(C)c3C(=O)Nc3ccc(F)c(F)c3)S(=O)(=O)N2)n1 (racemic) [Compound 167, N-(3,4-difluorophenyl)-3,7-dimethyl-3-[(1-methylpyrazol-3-yl)methyl]-1,1-dioxo-2,4-dihydropyrrolo[3,4-b][1,4,5]oxathiazepine-6-carboxamide] | 41 nM | > 25 µM
Cc1cccc(C2(C)COc3c(cn(C)c3C(=O)Nc3ccc(F)c(F)c3)S(=O)(=O)N2)n1 (racemic) [Compound 168, N-(3,4-difluorophenyl)-3,7-dimethyl-3-(6-methyl-2-pyridyl)-1,1-dioxo-2,4-dihydropyrrolo[3,4-b][1,4,5]oxathiazepine-6-carboxamide] | 25 nM | > 25 µM
Cc1cc(CC2(C)COc3c(cn(C)c3C(=O)Nc3cc(F)c(F)c(F)c3)S(=O)(=O)N2)no1 (single isomer, unassigned) [Compound 170a, 3,7-dimethyl-3-[(5-methylisoxazol-3-yl)methyl]-1,1-dioxo-N-(3,4,5-trifluorophenyl)-2,4-dihydropyrrolo[3,4-b][1,4,5]oxathiazepine-6-carboxamide] |  | > 25 µM
Cc1cccc(C2(C)COc3c(cn(C)c3C(=O)Nc3ccc(F)c(C(F)F)c3)S(=O)(=O)N2)n1 (single isomer, unassigned) [Compound 177a, N-[3-(difluoromethyl)-4-fluoro-phenyl]-3,7-dimethyl-3-(6-methyl-2-pyridyl)-1,1-dioxo-2,4-dihydropyrrolo[3,4-b][1,4,5]oxathiazepine-6-carboxamide] |  | > 25 µM
Cn1cc2c(c1C(=O)Nc1ccc(F)c(F)c1)C=CC(C)(Cc1ccc(Cl)nc1)NS2(=O)=O (stereo not shown) [Compound 219, 3-[(6-chloro-3-pyridyl)methyl]-N-(3,4-difluorophenyl)-3,7-dimethyl-1,1-dioxo-2H-pyrrolo[3,4-f]thiazepine-6-carboxamide] |  | > 25 µM
